US7851474B2, “Dipiperazinyl ketones and related analogues” (Neurogen Corporation, priority 2005, dated 2010)

target: T1, chimeric human H3 receptor (Homo sapiens, UniProt Q9Y5N1, E19D); experiment: Chimeric human H3 receptor screening GTP binding assay (inhibition of histamine-stimulated GTP-gamma35S binding, Example 8); format: biochemical; conditions: 1 h; Table II "Ki", symbol "+": assay described in Example 8; read-out: percent inhibition of agonist-induced GTP-gammaS binding to H3
T1 construct: made in house; host or cells: Sf9 insect cells (baculovirus infection); P2 membrane preparation
T1 sequence (Q9Y5N1 with tags, fused parts or gaps E19D): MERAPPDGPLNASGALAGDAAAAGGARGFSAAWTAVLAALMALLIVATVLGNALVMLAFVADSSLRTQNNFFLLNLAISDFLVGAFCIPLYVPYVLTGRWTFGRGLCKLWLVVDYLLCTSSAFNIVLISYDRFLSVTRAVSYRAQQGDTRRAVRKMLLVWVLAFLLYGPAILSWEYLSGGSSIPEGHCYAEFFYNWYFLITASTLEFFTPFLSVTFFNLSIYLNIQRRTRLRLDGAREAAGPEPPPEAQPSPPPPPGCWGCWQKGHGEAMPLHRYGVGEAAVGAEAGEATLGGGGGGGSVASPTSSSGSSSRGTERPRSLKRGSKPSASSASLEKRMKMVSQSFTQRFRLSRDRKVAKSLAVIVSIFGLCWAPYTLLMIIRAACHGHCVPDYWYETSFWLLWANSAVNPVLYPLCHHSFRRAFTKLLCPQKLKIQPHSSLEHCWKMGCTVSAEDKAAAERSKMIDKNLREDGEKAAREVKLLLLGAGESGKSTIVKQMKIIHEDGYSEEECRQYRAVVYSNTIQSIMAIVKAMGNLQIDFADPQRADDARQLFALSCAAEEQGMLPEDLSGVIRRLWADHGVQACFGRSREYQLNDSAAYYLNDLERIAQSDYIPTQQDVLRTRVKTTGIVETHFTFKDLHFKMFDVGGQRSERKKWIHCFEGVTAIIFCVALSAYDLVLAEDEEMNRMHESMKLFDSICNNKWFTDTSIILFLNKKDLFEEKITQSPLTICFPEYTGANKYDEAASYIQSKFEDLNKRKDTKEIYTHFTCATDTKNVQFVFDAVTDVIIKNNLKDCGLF
How it was run: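 Data are percent inhibition of the 1 μM histamine-stimulated GTP-gamma35S (125 pM) binding, after non-specific binding (10 uM GTP-gammaS) is subtracted. Test compound at 4 μM. Incubation was 60 min at room temperature with Sf9 membranes bearing receptor plus G-protein subunits, buffer pH 7.4 with 10 μM GDP, and filtration read-out.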

Inhibition at 4 µM, > 90%:
COc1cc(C(=O)N2CCN(CC(=O)N3CCN(C4CCC4)CC3)CC2)nc2ccccc12 [Compound 895, 2-({4-[2-(4-cyclobutylpiperazin-1-yl)-2-oxoethyl]piperazin-1-yl}carbonyl)-4-methoxyquinoline]

same assay, conditions: 1 h; Table II; assay of Example 8; "+" in Ki; read-out: percent inhibition of agonist-induced GTP-gammaS binding to H3

Inhibition at 4 µM, > 90%:
O=C(CN1CCN(C(=O)c2cnc3ccccc3c2)CC1)N1CCN(C2CCC2)CC1 [Compound 985, 3-({4-[2-(4-cyclobutylpiperazin-1-yl)-2-oxoethyl]piperazin-1-yl}carbonyl)quinoline]
CNc1ccc(C(=O)N2CCN(CC(=O)N3CCN(C4CCC4)CC3)CC2)cc1 [Compound 1088]
O=C(CN1CCN(C(=O)c2cc(-c3ccccc3)nc3ccccc23)CC1)N1CCN(C2CCC2)CC1 [Compound 1089]
O=C(CN1CCN(C(=O)c2c(-c3ccccc3)nnc3ccccc23)CC1)N1CCN(C2CCC2)CC1 [Compound 1090]

same assay, conditions: 1 h; assay of Example 8; "+" in Ki of Table II; read-out: percent inhibition of agonist-induced GTP-gammaS binding to H3

Inhibition at 4 µM, > 90%:
Nc1ccc(Cl)cc1C(=O)N1CCN(CC(=O)N2CCN(C3CCC3)CC2)CC1 [Compound 1151, 4-chloro-2-({4-[2-(4-cyclobutylpiperazin-1-yl)-2-oxoethyl]piperazin-1-yl}carbonyl)aniline]
Cc1ccc(C(=O)N2CCN(CC(=O)N3CCN(C4CCC4)CC3)CC2)cc1N [Compound 1153, 5-({4-[2-(4-cyclobutylpiperazin-1-yl)-2-oxoethyl]piperazin-1-yl}carbonyl)-2-methylaniline]
Nc1cc(Cl)ccc1C(=O)N1CCN(CC(=O)N2CCN(C3CCC3)CC2)CC1 [Compound 1163, 5-chloro-2-({4-[2-(4-cyclobutylpiperazin-1-yl)-2-oxoethyl]piperazin-1-yl}carbonyl)aniline]
CSc1ncc(Cl)c(C(=O)N2CCN(CC(=O)N3CCN(C4CCC4)CC3)CC2)n1 [Compound 1164, 5-chloro-4-({4-[2-(4-cyclobutylpiperazin-1-yl)-2-oxoethyl]piperazin-1-yl}carbonyl)-2-(methylthio)pyrimidine]
